The compounds below were run on mosquito larvae, Culex pipiens (assay: Larvicidal activity against mosquito larvae in water). Details: 1 ml acetone solution in 100 ml water, 3rd instar larvae.
Format: in vivo
Method: Representative compounds of the N,N'-sulfinyldicarbamate esters of the invention were tested for insecticidal activity against two insect species, house flies, Musca domestica, and mosquito larvae, Culex pipiens. Stock 1% concentrated solutions of each of the test compounds were made in acetone, and such solutions diluted with acetone to a concentration of 0.001-0.1%. House flies were treated topically on the notum by 1 μl of each of the diluted acetone solutions and percent mortality was counted 24 hours after application. Insects were held at a constant temperature of 60° F. Larvicidal activity was determined by applying 1 ml of the acetone solution in 100 ml of water containing 20 3rd instar mosquito larvae. Results are presented as LD50 in μg/g for house flies and LC50 in ppm for mosquito larvae.

SMILES	Culex LC50
CCOC(=O)N(C)[S+]([O-])N(C)C(=O)Oc1cccc2c1OC(C)(C)C2 (stereo not drawn) [VIII, 2,3-dihydro-2,2-dimethylbenzofuranyl-7 N-[N'-(ethoxycarbonyl)-N'-(methylaminosulfinyl)]-N-methylcarbamate]	0.04 ppm
CCCOC(=O)N(C)[S+]([O-])N(C)C(=O)Oc1ccccc1OC(C)C (stereo not drawn) [XI, 2-isopropoxyphenyl N-[N'-(n-propoxycarbonyl)-N'-(methylaminosulfinyl)]-N-methylcarbamate]	0.18 ppm
CCCCCCCOC(=O)N(C)[S+]([O-])N(C)C(=O)Oc1cccc2c1OC(C)(C)C2 (stereo not drawn) [X, 2,3-dihydro-2,2-dimethylbenzofuranyl-7 N-[N'-(n-heptoxycarbonyl)-N'-(methylaminosulfinyl)]-N-methylcarbamate]	0.015 ppm

— patent publication US4315027A, “Pesticidal symmetrical and asymmetrical sulfinyldicarbamates containing a heterocyclic group” (priority 1980, dated 1982)
